Reference: ChEMBL document CHEMBL4507256 (2021)

Tests used:
[1] = biological target: Serine/threonine-protein kinase 17A (Homo sapiens) (UniProt Q9UEE5); settings: Compound concentration 1000.0 nM
[2] = biological target: Calcium/calmodulin-dependent protein kinase kinase 2 (Homo sapiens) (UniProt Q96RR4); settings: Compound concentration 1000.0 nM
[3] = biological target: Type-1 angiotensin II receptor (Homo sapiens) (UniProt P30556); assay: AT1 (h) CEREP ligand profiling; settings: Compound concentration 10.0 uM
[4] = biological target: Adenosine receptor A1 (Homo sapiens) (UniProt P30542); assay: A1 CEREP ligand profiling; settings: Compound concentration 10.0 uM
[5] = biological target: Substance-K receptor (Homo sapiens) (UniProt P21452); assay: NK2 (h) CEREP ligand profiling; settings: Compound concentration 10.0 uM
Sequence of Substance-K receptor (Homo sapiens) (P21452 whole entry): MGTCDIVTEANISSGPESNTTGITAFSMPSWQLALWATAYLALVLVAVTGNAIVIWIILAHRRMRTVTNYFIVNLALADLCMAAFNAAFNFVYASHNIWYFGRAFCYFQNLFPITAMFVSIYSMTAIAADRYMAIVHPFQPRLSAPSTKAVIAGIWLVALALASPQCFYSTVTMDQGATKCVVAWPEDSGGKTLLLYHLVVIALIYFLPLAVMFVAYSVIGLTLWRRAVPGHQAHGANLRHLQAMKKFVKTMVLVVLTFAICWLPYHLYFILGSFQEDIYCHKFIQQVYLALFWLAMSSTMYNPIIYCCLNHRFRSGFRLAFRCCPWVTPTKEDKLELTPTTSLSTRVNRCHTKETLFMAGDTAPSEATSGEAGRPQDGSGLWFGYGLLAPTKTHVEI

[6] = biological target: T1, 5-hydroxytryptamine receptor 2C (Homo sapiens) (UniProt P28335); assay: 5-HT2C (h) CEREP ligand profiling; settings: Compound concentration 10.0 uM
T1 sequence (whole entry): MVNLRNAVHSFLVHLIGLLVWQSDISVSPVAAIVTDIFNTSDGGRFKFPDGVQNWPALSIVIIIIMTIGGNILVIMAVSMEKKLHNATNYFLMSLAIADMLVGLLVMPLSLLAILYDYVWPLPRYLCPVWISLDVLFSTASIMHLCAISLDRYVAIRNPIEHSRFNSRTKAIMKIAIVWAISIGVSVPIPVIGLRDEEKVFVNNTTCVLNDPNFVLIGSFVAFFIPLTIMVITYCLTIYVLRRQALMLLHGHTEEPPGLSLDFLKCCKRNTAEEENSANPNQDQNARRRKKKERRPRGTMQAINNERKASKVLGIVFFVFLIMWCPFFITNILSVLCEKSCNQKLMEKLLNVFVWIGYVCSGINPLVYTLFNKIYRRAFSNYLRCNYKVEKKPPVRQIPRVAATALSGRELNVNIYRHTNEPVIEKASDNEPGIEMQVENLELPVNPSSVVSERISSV

[7] = biological target: D(1B) dopamine receptor (Homo sapiens) (UniProt P21918); assay: D5 (h) CEREP ligand profiling; settings: Compound concentration 10.0 uM
[8] = biological target: Histamine H1 receptor (Homo sapiens) (UniProt P35367); assay: H1 (h) CEREP ligand profiling; settings: Compound concentration 10.0 uM
Sequence of Histamine H1 receptor (Homo sapiens) (P35367 whole entry): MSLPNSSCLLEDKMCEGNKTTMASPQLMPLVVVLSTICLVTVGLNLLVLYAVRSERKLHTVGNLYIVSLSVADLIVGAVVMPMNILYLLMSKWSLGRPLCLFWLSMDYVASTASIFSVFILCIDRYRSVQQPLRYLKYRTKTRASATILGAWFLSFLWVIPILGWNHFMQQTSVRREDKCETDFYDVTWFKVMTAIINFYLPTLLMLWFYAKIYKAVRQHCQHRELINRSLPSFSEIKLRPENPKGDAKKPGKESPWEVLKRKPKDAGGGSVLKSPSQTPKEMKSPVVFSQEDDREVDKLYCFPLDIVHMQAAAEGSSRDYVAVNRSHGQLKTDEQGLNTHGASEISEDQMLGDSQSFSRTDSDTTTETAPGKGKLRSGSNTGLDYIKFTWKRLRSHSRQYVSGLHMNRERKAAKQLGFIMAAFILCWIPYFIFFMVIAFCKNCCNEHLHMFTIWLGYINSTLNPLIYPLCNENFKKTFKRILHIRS

[9] = biological target: Vasoactive intestinal polypeptide receptor 1 (Homo sapiens) (UniProt P32241); assay: VIP1 (h) CEREP ligand profiling; settings: Compound concentration 10.0 uM
Sequence of Vasoactive intestinal polypeptide receptor 1 (Homo sapiens) (P32241 whole entry): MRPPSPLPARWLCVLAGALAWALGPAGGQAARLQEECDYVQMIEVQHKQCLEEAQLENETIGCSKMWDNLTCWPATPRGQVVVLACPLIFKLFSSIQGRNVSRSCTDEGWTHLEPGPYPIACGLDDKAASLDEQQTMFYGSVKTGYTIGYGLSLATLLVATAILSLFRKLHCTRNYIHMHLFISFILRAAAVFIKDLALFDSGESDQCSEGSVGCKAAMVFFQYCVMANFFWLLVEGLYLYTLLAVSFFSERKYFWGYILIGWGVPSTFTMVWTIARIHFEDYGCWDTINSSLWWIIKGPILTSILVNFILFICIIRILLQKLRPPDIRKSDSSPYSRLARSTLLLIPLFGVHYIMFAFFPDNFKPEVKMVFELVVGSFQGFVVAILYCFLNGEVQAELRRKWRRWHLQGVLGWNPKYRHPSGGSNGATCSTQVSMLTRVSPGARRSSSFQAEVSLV

[10] = biological target: B2 bradykinin receptor (Homo sapiens) (UniProt P30411); assay: B2 (h) CEREP ligand profiling; settings: Compound concentration 10.0 uM
[11] = biological target: D(1A) dopamine receptor (Homo sapiens) (UniProt P21728); assay: D1 (h) CEREP ligand profiling; settings: Compound concentration 10.0 uM
Sequence of D(1A) dopamine receptor (Homo sapiens) (P21728 whole entry): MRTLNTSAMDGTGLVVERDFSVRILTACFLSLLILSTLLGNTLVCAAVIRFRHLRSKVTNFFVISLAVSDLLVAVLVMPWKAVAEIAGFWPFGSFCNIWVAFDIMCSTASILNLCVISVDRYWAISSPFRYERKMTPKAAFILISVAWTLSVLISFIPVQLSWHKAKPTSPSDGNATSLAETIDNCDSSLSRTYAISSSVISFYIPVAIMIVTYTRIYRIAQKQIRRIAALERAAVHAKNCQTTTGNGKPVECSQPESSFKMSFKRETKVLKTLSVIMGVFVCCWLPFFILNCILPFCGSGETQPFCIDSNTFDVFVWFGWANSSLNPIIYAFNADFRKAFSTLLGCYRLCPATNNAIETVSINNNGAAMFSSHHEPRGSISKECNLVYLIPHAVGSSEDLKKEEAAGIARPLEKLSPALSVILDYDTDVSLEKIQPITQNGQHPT

[12] = biological target: Calcium-activated potassium channel (Homo sapiens) (UniProt Q92952+Q9UGI6+Q12791+O15554+Q9H2S1+A8MYU2); assay: SK+ channel CEREP ligand profiling; format: protein assay; settings: Compound concentration 10.0 uM
[13] = biological target: T2, Muscarinic acetylcholine receptor M2 (Homo sapiens) (UniProt P08172); assay: M2 (h) CEREP ligand profiling; settings: Compound concentration 10.0 uM
T2 sequence (whole entry): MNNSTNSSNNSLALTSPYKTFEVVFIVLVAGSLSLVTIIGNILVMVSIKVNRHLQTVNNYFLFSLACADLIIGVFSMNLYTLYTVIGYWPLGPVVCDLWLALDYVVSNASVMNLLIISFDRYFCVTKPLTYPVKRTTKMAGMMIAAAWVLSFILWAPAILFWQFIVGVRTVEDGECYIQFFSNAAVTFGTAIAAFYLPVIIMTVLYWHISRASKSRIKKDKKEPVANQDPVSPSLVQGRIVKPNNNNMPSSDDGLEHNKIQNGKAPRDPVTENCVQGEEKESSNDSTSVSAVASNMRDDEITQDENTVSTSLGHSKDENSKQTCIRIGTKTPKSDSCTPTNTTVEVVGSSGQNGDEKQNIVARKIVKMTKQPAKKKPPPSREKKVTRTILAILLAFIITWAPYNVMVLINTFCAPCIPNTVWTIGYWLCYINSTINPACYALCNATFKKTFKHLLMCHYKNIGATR

[14] = biological target: Substance-P receptor (Homo sapiens) (UniProt P25103); assay: NK1 (h) CEREP ligand profiling; settings: Compound concentration 10.0 uM
Sequence of Substance-P receptor (Homo sapiens) (P25103 whole entry): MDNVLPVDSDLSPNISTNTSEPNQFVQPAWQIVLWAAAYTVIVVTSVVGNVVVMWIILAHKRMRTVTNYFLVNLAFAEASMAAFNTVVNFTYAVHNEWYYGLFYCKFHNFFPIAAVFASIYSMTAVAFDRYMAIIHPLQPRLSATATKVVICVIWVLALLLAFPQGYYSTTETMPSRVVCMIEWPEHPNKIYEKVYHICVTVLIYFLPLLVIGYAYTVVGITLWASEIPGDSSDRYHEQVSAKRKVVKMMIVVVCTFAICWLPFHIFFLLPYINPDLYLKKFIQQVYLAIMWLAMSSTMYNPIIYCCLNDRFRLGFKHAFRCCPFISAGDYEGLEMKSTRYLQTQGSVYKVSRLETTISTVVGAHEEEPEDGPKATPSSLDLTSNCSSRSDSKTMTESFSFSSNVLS

[15] = biological target: Somatostatin receptor (Homo sapiens) (UniProt P35346+P30874+P31391+P30872+P32745); assay: sst CEREP ligand profiling; format: protein assay; settings: Compound concentration 10.0 uM
[16] = biological target: Vasopressin V1a receptor (Homo sapiens) (UniProt P37288); assay: V1a (h) CEREP ligand profiling; settings: Compound concentration 10.0 uM
Sequence of Vasopressin V1a receptor (Homo sapiens) (P37288 whole entry, looked up): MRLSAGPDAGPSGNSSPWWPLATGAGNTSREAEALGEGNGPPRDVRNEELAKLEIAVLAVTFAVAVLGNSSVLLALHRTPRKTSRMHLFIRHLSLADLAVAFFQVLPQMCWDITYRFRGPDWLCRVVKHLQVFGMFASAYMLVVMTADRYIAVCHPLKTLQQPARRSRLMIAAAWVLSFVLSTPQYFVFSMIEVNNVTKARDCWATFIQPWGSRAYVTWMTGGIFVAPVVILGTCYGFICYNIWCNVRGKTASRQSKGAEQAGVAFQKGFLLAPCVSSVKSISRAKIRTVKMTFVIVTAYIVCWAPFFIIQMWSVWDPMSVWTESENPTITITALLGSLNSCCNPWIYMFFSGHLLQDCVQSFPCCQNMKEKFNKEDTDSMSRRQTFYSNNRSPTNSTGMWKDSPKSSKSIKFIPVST

[17] = biological target: Endothelin-1 receptor (Homo sapiens) (UniProt P25101); assay: ETA (h) CEREP ligand profiling; settings: Compound concentration 10.0 uM
Sequence of Endothelin-1 receptor (Homo sapiens) (P25101 whole entry): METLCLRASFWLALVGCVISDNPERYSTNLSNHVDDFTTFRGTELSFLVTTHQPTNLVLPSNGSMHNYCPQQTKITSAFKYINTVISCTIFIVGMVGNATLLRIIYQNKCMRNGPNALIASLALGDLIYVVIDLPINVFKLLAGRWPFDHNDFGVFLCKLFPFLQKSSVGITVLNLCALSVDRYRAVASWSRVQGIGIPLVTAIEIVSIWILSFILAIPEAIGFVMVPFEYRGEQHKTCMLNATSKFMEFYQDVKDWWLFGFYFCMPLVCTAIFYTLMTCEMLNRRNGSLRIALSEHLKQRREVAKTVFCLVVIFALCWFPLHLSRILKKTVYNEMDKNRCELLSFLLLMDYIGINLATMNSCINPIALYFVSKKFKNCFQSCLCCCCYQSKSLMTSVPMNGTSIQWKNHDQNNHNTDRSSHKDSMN

[18] = biological target: Beta-2 adrenergic receptor (Homo sapiens) (UniProt P07550); assay: beta 2 CEREP ligand profiling; settings: Compound concentration 10.0 uM
[19] = biological target: Melatonin receptor type 1A (Homo sapiens) (UniProt P48039); assay: MT1 (h) CEREP ligand profiling; settings: Compound concentration 10.0 uM
Sequence of Melatonin receptor type 1A (Homo sapiens) (P48039 whole entry): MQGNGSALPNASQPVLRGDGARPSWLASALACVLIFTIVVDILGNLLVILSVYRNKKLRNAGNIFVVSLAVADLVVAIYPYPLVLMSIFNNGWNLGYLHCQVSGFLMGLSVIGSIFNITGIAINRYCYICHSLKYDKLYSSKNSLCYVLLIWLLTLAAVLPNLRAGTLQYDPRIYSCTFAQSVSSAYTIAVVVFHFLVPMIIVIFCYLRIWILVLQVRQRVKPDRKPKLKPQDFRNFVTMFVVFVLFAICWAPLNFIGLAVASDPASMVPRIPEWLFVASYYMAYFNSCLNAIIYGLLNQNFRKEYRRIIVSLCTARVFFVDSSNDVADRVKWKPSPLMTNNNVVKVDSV

[20] = biological target: Kappa-type opioid receptor (Cavia porcellus) (UniProt P41144); assay: kappa (guinea pig) CEREP ligand profiling; settings: Compound concentration 10.0 uM
Sequence of Kappa-type opioid receptor (Cavia porcellus) (P41144 whole entry, looked up): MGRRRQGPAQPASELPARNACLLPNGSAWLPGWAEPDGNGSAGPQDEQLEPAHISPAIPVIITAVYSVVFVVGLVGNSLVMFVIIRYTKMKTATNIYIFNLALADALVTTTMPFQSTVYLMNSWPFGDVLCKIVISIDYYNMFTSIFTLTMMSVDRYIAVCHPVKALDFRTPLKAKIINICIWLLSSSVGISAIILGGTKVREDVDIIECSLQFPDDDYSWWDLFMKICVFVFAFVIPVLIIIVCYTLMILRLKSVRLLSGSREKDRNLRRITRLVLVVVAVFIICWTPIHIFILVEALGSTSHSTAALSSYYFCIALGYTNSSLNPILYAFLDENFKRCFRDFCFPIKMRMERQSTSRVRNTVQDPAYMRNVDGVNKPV

[21] = biological target: Thromboxane A2 receptor (Homo sapiens) (UniProt P21731); assay: TXA2/PGH2 CEREP ligand profiling; settings: Compound concentration 10.0 uM
Sequence of Thromboxane A2 receptor (Homo sapiens) (P21731 whole entry): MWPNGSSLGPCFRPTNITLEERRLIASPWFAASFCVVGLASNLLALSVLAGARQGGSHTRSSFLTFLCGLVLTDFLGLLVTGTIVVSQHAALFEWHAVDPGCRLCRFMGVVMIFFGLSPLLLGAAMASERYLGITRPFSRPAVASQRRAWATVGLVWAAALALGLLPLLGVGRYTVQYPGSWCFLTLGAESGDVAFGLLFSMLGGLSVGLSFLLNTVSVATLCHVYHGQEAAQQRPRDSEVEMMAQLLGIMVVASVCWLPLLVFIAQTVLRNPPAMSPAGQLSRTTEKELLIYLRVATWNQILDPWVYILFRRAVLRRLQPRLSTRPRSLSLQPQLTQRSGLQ

[22] = biological target: GABA-A receptor; anion channel (Homo sapiens) (UniProt P14867+P47870+P18507+P28472+P48169+Q99928+Q9UN88+P34903+O00591+O14764+Q8N1C3+P18505+P78334+P47869+P31644+Q16445); assay: BZD (central) CEREP ligand profiling; format: protein-complex assay; settings: Compound concentration 10.0 uM
[23] = biological target: T3, 5-hydroxytryptamine receptor 3A (Homo sapiens) (UniProt P46098); assay: 5-HT3 (h) CEREP ligand profiling; settings: Compound concentration 10.0 uM
T3 sequence (whole entry): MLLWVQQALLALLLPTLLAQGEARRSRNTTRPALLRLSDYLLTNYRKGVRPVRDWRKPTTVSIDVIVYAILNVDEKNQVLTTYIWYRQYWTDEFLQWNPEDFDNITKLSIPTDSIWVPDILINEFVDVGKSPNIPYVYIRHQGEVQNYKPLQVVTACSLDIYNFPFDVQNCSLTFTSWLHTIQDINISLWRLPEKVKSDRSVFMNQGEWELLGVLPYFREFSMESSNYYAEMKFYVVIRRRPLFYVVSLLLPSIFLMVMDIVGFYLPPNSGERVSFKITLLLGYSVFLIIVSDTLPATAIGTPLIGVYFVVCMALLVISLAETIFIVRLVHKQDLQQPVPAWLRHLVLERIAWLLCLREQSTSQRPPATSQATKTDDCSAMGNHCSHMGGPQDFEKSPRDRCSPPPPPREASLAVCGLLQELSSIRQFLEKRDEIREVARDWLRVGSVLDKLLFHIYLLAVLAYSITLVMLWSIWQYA

[24] = biological target: Neuromedin-K receptor (Homo sapiens) (UniProt P29371); assay: NK3 (h) CEREP ligand profiling; settings: Compound concentration 10.0 uM

Sequence of Calcium/calmodulin-dependent protein kinase kinase 2 (Homo sapiens) (Q96RR4 2-588 limits assumed): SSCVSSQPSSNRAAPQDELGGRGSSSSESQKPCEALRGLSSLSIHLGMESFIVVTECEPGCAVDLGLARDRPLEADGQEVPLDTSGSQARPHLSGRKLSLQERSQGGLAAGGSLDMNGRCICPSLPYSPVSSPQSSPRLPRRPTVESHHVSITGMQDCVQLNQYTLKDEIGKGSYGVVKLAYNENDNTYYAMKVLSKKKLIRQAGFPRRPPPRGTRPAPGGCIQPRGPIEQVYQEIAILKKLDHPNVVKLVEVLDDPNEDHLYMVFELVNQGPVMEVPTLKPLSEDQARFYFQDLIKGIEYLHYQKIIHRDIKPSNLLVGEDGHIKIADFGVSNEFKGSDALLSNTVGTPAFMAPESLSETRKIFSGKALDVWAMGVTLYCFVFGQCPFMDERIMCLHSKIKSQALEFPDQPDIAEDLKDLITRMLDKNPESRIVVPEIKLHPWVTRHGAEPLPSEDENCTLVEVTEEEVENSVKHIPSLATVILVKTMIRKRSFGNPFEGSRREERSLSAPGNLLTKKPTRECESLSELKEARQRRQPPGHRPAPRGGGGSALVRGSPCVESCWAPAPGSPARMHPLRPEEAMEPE

CCC(=N\O)/C(C)=C/c1ccc(F)c(C)c1 [A-226]
inactive: residual activity [1] 73% | residual activity [2] 88%

CCC(=N\O)/C(C)=C/c1ccc(F)cc1 [A-079]
inactive: inhibition [3] -1% | inhibition [4] 8% | inhibition [5] 2% | inhibition [6] 6% | inhibition [7] -8% | inhibition [8] 4% | inhibition [9] 0% | inhibition [10] 2% | inhibition [11] 6% | inhibition [12] -5% | inhibition [13] 13% | inhibition [14] -3% | inhibition [15] -4% | inhibition [16] -3% | inhibition [17] 5% | inhibition [18] -3% | inhibition [19] 31% | inhibition [20] -4% | inhibition [21] 6% | inhibition [22] 1% | inhibition [23] 0% | inhibition [24] 23%
